Data from ChEMBL document CHEMBL1133194, “Synthesis and bioactivities of novel piperidylpyrimidine derivatives: inhibitors of tumor necrosis factor-alpha production” (Bioorg Med Chem Lett, 2000).

Organism: Mus musculus
Assay: Ability to inhibit tumor necrosis factor-alpha (TNF-alpha) production in mouse macrophages stimulated with LPS
Format: functional

SMILES | IC50 [nM]
Nc1nc(C2CCNCC2)c2ccccc2n1 | 51000
CN1CCN(c2nc(N)nc3ccccc23)CC1 | > 100000
COc1ccc(Cc2cc(C3CCN(C(=O)C(C)(C)C)CC3)nc(N)n2)cc1 | 5600
COc1ccc(Cc2cc(C3CCN(C(C)=O)CC3)nc(N)n2)cc1 | 6100
COc1ccc(Cc2cc(C3CCN(C(=O)c4ccccc4[N+](=O)[O-])CC3)nc(N)n2)cc1 | 1700
Nc1nc(C2CCN(C(=O)Cc3ccccc3)CC2)c2ccccc2n1 | 2000
COc1ccc(Cc2cc(C3CCN(C(=O)c4ccc(OC)c(OC)c4)CC3)nc(N)n2)cc1 | 900
COc1ccc(Cc2cc(C3CCN(C(=O)c4cccc(OC)c4OC)CC3)nc(N)n2)cc1 | 900
Nc1nc(-c2ccccc2)cc(C2CCN(C(=O)c3ccccc3)CC2)n1 | 5100
Nc1nc(C2CCN(CCc3ccccc3)CC2)c2ccccc2n1 | > 100000
Nc1nc(N2CCCCC2)c2ccccc2n1 | > 100000
COc1ccc(Cc2cc(C3CCN(C(=O)Cc4ccc(OC)c(OC)c4)CC3)nc(N)n2)cc1 | 1200
COc1ccc(Cc2cc(C3CCN(C(=O)Cc4ccc5c(c4)OCO5)CC3)nc(N)n2)cc1 | 1800
COc1ccc(Cc2cc(C3CCN(C(=O)c4ccccc4)CC3)nc(N)n2)cc1 | 1400
Nc1nc(C2CCN(C(=O)c3ccccc3)CC2)c2ccccc2n1 | 1400
COc1ccc(Cc2cc(C3CCN(C(=O)Cc4ccc(Cl)c(Cl)c4)CC3)nc(N)n2)cc1 | 2100
Nc1nc(Nc2ccccc2)c2ccccc2n1 | > 100000
O=C(c1ccccc1)N1CCC(c2ncnc3ccccc23)CC1 | 1400
COc1ccc(Cc2cc(C3CCN(C(=O)c4cc(OC)cc(OC)c4)CC3)nc(N)n2)cc1 | 1000
COc1ccc(Cc2cc(C3CCN(C(=O)c4cccc([N+](=O)[O-])c4)CC3)nc(N)n2)cc1 | 800
CCCCCC(=O)N1CCC(c2cc(Cc3ccc(OC)cc3)nc(N)n2)CC1 | 1500
COc1ccc(Cc2cc(C3CCN(C(=O)c4ccccc4OC)CC3)nc(N)n2)cc1 | 3600
Nc1nc(C2CCN(Cc3ccccc3)CC2)c2ccccc2n1 | 16000

SMILES | IC50 [nM]
COc1ccc(Cc2cc(C3CCN(C(=O)c4cccc(OC)c4)CC3)nc(N)n2)cc1 | 1200
COc1ccc(CC(=O)N2CCC(c3cc(Cc4ccc(OC)cc4)nc(N)n3)CC2)cc1 | 1700
COc1ccc(Cc2cc(C3CCN(C(=O)c4ccc(Cl)c(Cl)c4)CC3)nc(N)n2)cc1 | 700
COc1ccc(Cc2cc(C3CCN(C(=O)c4ccc(Cl)cc4)CC3)nc(N)n2)cc1 | 600
COc1ccc(-c2c(C)nc(N)nc2C2CCN(C(=O)c3ccccc3)CC2)cc1 | 9700
Nc1nc(C2CCN(C(=O)C3CCCCC3)CC2)c2ccccc2n1 | 2500
CCCCCCCC(=O)N1CCC(c2cc(Cc3ccc(OC)cc3)nc(N)n2)CC1 | 1900
Cc1cc(C2CCN(C(=O)c3ccccc3)CC2)nc(N)n1 | 9000
CCC(=O)N1CCC(c2cc(Cc3ccc(OC)cc3)nc(N)n2)CC1 | 4900
CCCC(=O)N1CCC(c2cc(Cc3ccc(OC)cc3)nc(N)n2)CC1 | 7200
Nc1nc(C2CCN(C(=O)CCc3ccccc3)CC2)c2ccccc2n1 | 6300
COc1ccc(Cc2cc(C3CCN(C(=O)c4ccc5c(c4)OCO5)CC3)nc(N)n2)cc1 | 600
O=C(c1ccccc1)N1CCC(c2nc(Cl)nc3ccccc23)CC1 | 1400
CC(=O)N1CCC(c2nc(N)nc3ccccc23)CC1 | 3600
Nc1nc(C2CCN(C3CCCCC3)CC2)c2ccccc2n1 | 53000
COc1ccc(Cc2cc(C3CCN(C(=O)c4ccc(OC)cc4)CC3)nc(N)n2)cc1 | 500
COc1ccc(Cc2cc(C3CCN(C(=O)Cc4ccccc4)CC3)nc(N)n2)cc1 | 2100
CN1CCC(c2nc(N)nc3ccccc23)CC1 | > 100000
COc1ccc(Cc2cc(C3CCN(C(=O)c4ccc([N+](=O)[O-])cc4)CC3)nc(N)n2)cc1 | 700
COc1ccc(Cc2cc(C3CCN(C(=O)Cc4ccc(Cl)cc4)CC3)nc(N)n2)cc1 | 2400
O=C(c1ccccc1)N1CCC(c2nc(O)nc3ccccc23)CC1 | 20000
CCCCC(=O)N1CCC(c2nc(N)nc3ccccc23)CC1 | 3000
Nc1nc(C2CCN(C(=O)c3ccc4c(c3)OCO4)CC2)c2ccccc2n1 | 4500
